Laboratory results reported in patent US6696484B2, “Method and compositions for regulation of 5-alpha reductase activity” (University of Chicago Office of Technology and Intellectual …, priority 1997, dated 2004).
Several values for one entry are separate records, joined by “and”; a condition that tells them apart may be missing. Equal values may be shown once.

How the values were obtained:
[1] = tested on: MCF-7 tumors; assay: Growth of MCF-7 tumors in female nude mice; format: in vivo, BALB/c athymic (nude) mice
[2] = tested on: PC-3 tumors; assay: Growth of PC-3 tumors in nude mice; format: in vivo, BALB/c athymic (nude) mice
[3] = tested on: LNCaP 104-R2 tumors; assay: Growth of LNCaP 104-R2 tumors in castrated male nude mice; format: in vivo, BALB/c athymic (nude) mice
[4] = tested on: LNCaP 104-S tumors; assay: Growth of LNCaP 104-S tumors in nude mice; format: in vivo, BALB/c athymic (nude) mice
[5] = tested on: LNCaP 104-R2 tumors; assay: Expression of AR, c-myc and PSA by LNCaP 104-R2 tumors (ribonuclease protection assay, serum PSA immunoassay); format: in vivo, BALB/c athymic (nude) mice; details: after 1 week of TP treatment
Text: (§1) BALB/c athymic (nude) male (LNCaP, PC-3 cell lines) and female (MCF-7 cell line) mice (Taconic Inc., Germantown, N.Y.), 5 to 7 weeks-old, were used. Mice were housed in a pathogen-free environment, four to five mice per cage. Cages (filter top), bedding and water were autoclaved before use. Feed was irradiated Pico Lab Mouse Chow 20 5058 (Purina). All procedures involving animals were approved by the University of Chicago Institutional Animal Care and Use Committee. For the tumor growth studies, 10^6 cells in 0.25 ml of culture medium were mixed with 0.25 ml of Matrigel™ (Collaborative Research, Bedford, Mass.) and were injected subcutaneously into one or both flanks of the mice as described previously (Liao et al., 1995). Tumor size was measured weekly and tumor volume was calculated using the formula L×W×H×0.52 (Janek and Hartman, 1975). Bilateral orchiectomy and subcutaneous implantation or removal of pellets were performed under Metofane anesthesia. Blood samples were obtained by heart puncture or from the orbital plexus while mice were under anesthesia and analyzed for testosterone levels by radioimmunoassay or PSA levels by dual-site reactive enzymatic immunoassay (Tandem®-E PSA, Hybritech, San Diego, Calif.). […] All numerical data are expressed as the average of the values obtained from 4 to 6 tumors and the standard error. […]

[6] = Biological effects of TP implants in nude mice (serum testosterone, seminal vesicle weight, body weight); format: in vivo, BALB/c athymic (nude) mice; details: 4th week after androgen implantation
Text: as §1

[7] = target: T1, 5α-reductase type 1 isozyme (Homo sapiens, UniProt P18405); details: read-out: Km for testosterone, type 1 isozyme; background statement; cited from earlier work
T1 sequence (P18405 1-259): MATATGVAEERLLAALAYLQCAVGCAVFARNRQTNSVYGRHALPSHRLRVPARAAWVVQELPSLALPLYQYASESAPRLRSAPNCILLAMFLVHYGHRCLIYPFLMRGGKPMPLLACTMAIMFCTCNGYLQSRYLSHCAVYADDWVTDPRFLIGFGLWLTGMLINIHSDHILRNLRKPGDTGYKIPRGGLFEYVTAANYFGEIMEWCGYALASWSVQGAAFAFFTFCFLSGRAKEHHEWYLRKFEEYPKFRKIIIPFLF

[8] = tested on: hamster flank organ; assay: Testosterone-stimulated growth of the pigmented macules of hamster flank organs; format: in vivo, Syrian golden hamsters; details: for Pigmented macule area, androgen alone (control): 0.5 μg testosterone alone topically daily;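 for all read-outs here: prepubertal Syrian golden hamsters castrated at 4 weeks, ethanol vehicle on one flank organ, macule long and short axes gauged by caliper 1 day after final dose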
[9] = target: T2, 5α-reductase type 2 isozyme (Homo sapiens, UniProt P31213); details: cited from earlier work
T2 sequence (P31213 1-254): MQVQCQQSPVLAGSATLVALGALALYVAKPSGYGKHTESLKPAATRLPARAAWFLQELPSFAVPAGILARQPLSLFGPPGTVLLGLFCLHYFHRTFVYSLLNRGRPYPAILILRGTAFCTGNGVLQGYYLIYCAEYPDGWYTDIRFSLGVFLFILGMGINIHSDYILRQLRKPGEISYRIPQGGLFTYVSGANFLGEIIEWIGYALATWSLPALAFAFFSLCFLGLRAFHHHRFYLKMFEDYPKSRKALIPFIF

[10] = tested on: LNCaP 104-S cells; assay: Proliferation of LNCaP 104-S cells in culture; format: cell-based, human; details: 0.1 nM R1881 vs androgen-depleted media
Method: Androgen-dependent LNCaP 104-S (passage 37) and androgen-independent LNCaP 104-R±sublines were isolated as described previously (Kokontis et al., 1994). The characteristics of these cells in vitro were confirmed before injection into nude mice. […] LNCaP 104-R2 cells grew in charcoal-treated media without additional androgen. Their proliferation was not stimulated but was repressed by 0.1 nM R1881. LNCaP 104-S cells were maintained in DMEM (Gibco) supplemented with 1 nM 5α-DHT and 10% FBS (Summit Biotechnology) and LNCaP 104-R2 cells were maintained in DMEM supplemented with 10% FBS treated with charcoal to remove steroid (Kokontis et al., 1994). PC-3 and MCF-7 cell lines were obtained from the American Type Culture Collection (Rockville, Md.), and were maintained in DMEM supplemented with 10% FBS.

[11] = tested on: hamster flank organ; assay: DHT-stimulated growth of the pigmented macules of hamster flank organs; format: in vivo, Syrian golden hamsters; details: 0.5 μg DHT + 1 mg compound topically daily, 18 days
Method: Prepubertal male Syrian golden hamsters, castrated at 4 weeks of age, were obtained from Harlan Sprague-Dawley Co. (Madison, Wis.). Bilateral orchiectomy was performed under anesthesia. The hamsters were housed individually in plastic cages and had free access to Purina rodent chow and water, and were maintained on a 12-h light/12-h dark cycle. Hamsters were used 1-2 weeks after castration and were divided into groups of 4-6 or 9-11 animals. Hair on the lower back of each animal was shaved weekly with an electric hair clipper to expose the flank organs. A treatment solution (5 μl with ethanol as vehicle) was applied topically to the flank organ once a day using a Pipetteman and a polypropylene disposable tip. The treatment solution contained either (a) ethanol alone, (b) an androgen (testosterone or DHT), (c) a test compound, or (d) a combination of an androgen and a test compound. For each hamster, one flank organ was treated while the other organ was not treated. The surface of the flank organ was wiped with an alcohol pad to remove residual compound before each treatment. At the end of each experiment (18 days), animals were killed by CO2 asphyxiation or an intraperitoneal injection of […]. Flank organs from both the treated and untreated sides were examined 1 day after the last treatment by the methods described below. The body weight of each animal was recorded before and after treatment. Experiments were repeated at least twice to assure reproducibility. The “Guide for the care and use of laboratory animals” (NIH publication no. 85-28, revised 1988) and the regulations of the U.S. Department of Agriculture were followed throughout the experiments.
In this study, the growth of the flank organ was determined by measuring the length of the long axis and the short axis of the pigmented spot (pigmented macule) with a caliper with a digital display (Digimatic; Mitutoyo Corporation, Japan). The surface area (in millimeters squared) of the spot was calculated as the product of the long axis and the short axis (Gomez and Frost 1975). The areas of the pigmented spots after treatment with ethanol alone or with test compound (in ethanol) alone were less than 10% of the areas of the pigmented spots after treatment with testosterone alone. These values were deducted from the experimental values and are compared in Tables 8-10. For each experiment, the means and standard error of the means (SEM) of the areas of the untreated and treated macules were computed separately for each treatment group. Within each experiment, an overall F-test (one way ANOVA) was used to test the null hypothesis that the mean sizes of the treated macules were the same in all groups, and Dunnett's multiple range test was used to examine differences between the treatment groups (i.e., green tea catechin+androgen, fatty acid+androgen, EGC derivative+androgen, or fatty acid derivative+androgen) and the control group (androgen treatment only). The Mann-Whitney test was used to examine differences between DHT-treated and the DHT and EGCG-treated groups. P-values <0.05 were taken as indicating statistical significance in all tests (Hochberg and Tamhane 1987).
Each group comprised four to six castrated male hamsters. At the end of the treatment period, the areas of the pigmented macules were determined and are presented as means±SEM in Table 8.
Each group comprised four to six castrated male hamsters. At the end of the treatment period, the areas of the pigmented macules were determined and are expressed as means±SEM as shown in Table 10.

[12] = target: 5α-reductase; assay: In vitro enzyme assay of 5α-reductase referred to in the discussion; format: biochemical; details: Hiipakka and Liao, unpublished results

## CCC(=O)O[C@H]1CC[C@H]2[C@@H]3CCC4=CC(=O)CC[C@]4(C)[C@H]3CC[C@]12C [TP, testosterone propionate]
[1]
  effect on growth of MCF-7 tumors: not affected
[2]
  effect on growth of AR negative PC-3 tumors: did not affect
[3]; TP implanted at 4th week, removed at 7th week, regrew from 96±26 (SE) mm^3
  LNCaP 104-R2 tumor size within 4 weeks after removal of TP: 641±157 mm^3
[3]; TP implanted at 7th week, from 884±64 (SE) mm^3
  LNCaP 104-R2 tumor size four weeks after TP implantation: 208±33 mm^3
[4]; TP implanted at the time of castration, from 299±27 (SE) mm^3, ±SE
  LNCaP 104-S tumor size 4 weeks after castration with TP implant: 965±166 mm^3
[5]
  increase of serum PSA: more than 10 fold
  increase of the level of PSA mRNA in tumor samples: more than 10 fold
[6]
  body weight of nude mice: no loss
[6]; vs castrates without TP
  increase of seminal vesicle weight: about 10 times

## C[C@]12CC[C@H]3[C@@H](CCC4=CC(=O)CC[C@@]43C)[C@@H]1CC[C@@H]2O [T, testosterone, reference compound]
[7]
  Km: > 1 µM
[8]; 18 days, mean±SEM
  Pigmented macule area, androgen alone (control): 13.83 ± 1.43 mm^2 and 17.40 ± 1.93 mm^2 and 18.65 ± 0.69 mm^2
[8]; 18 days, mean±SEM, listed as testosterone
  Pigmented macule area, androgen alone (control): 15-20 mm^2
[8]; 0.5 μg testosterone per flank organ per day
  stimulation of flank organ growth relative to the maximum stimulation: 50-70%
[9]; read-out: Km for testosterone, type 2 isozyme, background statement
  Km: < 0.01 µM

## CC(C)(C)NC(=O)[C@H]1CC[C@H]2[C@@H]3CC[C@H]4NC(=O)C=C[C@]4(C)[C@H]3CC[C@]12C [Finasteride]
[1]
  effect on growth of MCF-7 tumors: did not affect
[3]; finasteride (2.5 mg) pellets at 7th week in mice with TP since 4th week, from 84±15 (SE) mm^3
  LNCaP 104-R2 tumor size within 4 weeks after finasteride implantation: 593±144 mm^3
[4]; finasteride treatment, normal nude mice, within 4 weeks
  reduction of LNCaP 104-S tumor size: 45%
[9]; competitive inhibitor, Russell and Wilson, 1994
  affinity for isozyme 2 relative to isozyme 1: 30 fold

## C[C@]1(O)CC[C@H]2[C@@H]3CCC4=CC(=O)CCC4=C3C=C[C@@]21C [R1881, 17 β-hydroxy-17 α-methyl-estra-4,9,11-trien-3-one]
[10]
  increase of proliferation of LNCaP 104-S cells: 10-13 fold

## O=C1c2ccccc2C(=O)c2c1ccc(O)c2O [Alizarin]
[11]
  Inhibition (percent decrease in macule area vs androgen-treated macules): 27%
[11]; mean±SEM
  Pigmented macule area: 10.00 ± 0.43 mm^2
[8]; 0.5 μg testosterone + 1 mg compound topically daily, 18 days
  Inhibition (percent decrease in macule area vs androgen-treated macules): 87%
[8]; 0.5 μg testosterone + 1 mg compound topically daily, 18 days, castrated male hamsters, mean±SEM
  Pigmented macule area: 2.40 ± 0.47 mm^2
[12]
  IC50: 5 to 10 µM
